Source: patent US8163732B2, “Tricyclic heteroaryl compounds useful as inhibitors of Janus kinase” (Vertex Pharmaceuticals Incorporated, priority 2005, dated 2012)

Legend:
JAK-2 = JAK-2 (Homo sapiens, UniProt O60674); assay: JAK-2 inhibition assay; type: biochemical
JAK-3 = target: T1, JAK-3 (Homo sapiens, UniProt P52333); assay: JAK-3 inhibition assay; type: biochemical
T1 sequence (P52333 1-1124): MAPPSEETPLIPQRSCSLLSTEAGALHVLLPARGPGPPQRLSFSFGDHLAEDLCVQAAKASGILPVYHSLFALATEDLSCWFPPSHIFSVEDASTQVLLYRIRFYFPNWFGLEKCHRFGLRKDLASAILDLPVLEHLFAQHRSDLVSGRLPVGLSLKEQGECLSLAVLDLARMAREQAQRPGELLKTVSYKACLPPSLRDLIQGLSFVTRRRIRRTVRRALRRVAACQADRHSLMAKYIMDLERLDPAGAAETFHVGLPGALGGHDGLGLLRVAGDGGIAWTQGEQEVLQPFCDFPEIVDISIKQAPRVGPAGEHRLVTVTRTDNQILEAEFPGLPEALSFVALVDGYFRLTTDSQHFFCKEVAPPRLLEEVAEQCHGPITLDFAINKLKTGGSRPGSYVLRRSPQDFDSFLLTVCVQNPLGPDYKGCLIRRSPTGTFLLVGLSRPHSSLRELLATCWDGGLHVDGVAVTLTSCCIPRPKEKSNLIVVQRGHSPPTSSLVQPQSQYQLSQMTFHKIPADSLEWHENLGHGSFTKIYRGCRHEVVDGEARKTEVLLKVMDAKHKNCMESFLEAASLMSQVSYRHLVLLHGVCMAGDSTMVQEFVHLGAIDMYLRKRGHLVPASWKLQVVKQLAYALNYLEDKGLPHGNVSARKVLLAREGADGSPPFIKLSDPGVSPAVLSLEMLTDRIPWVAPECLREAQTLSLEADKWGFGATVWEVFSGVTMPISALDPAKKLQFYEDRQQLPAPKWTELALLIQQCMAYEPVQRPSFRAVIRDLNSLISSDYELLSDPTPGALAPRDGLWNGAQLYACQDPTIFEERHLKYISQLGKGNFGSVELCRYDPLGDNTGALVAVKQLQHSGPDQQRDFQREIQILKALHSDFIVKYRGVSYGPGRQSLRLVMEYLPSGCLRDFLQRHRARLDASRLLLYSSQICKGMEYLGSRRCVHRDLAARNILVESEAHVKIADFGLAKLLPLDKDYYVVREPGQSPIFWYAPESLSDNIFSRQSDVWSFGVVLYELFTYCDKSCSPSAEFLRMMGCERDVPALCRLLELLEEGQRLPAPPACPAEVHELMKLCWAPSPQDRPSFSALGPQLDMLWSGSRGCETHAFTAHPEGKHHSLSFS
Experimental: Compounds were screened for their ability to inhibit JAK using the assay shown below. Reactions were carried out in a kinase buffer containing 100 mM HEPES (pH 7.4), 1 mM DTT, 10 mM MgCl2, 25 mM NaCl, and 0.01% BSA.
Substrate concentrations in the assay were 5 μM ATP (200 μCi/μmole ATP) and 1 μM poly(Glu)4Tyr. Reactions were carried out at 25° C. and 1 nM JAK-3.
To each well of a 96 well polycarbonate plate was added 1.5 μL of a candidate JAK-3 inhibitor along with 50 μL of kinase buffer containing 2 μM poly(Glu)4Tyr and 10 μM ATP. This was then mixed and 50 μL of kinase buffer containing 2 nM JAK-3 enzyme was added to start the reaction. After 20 minutes at room temperature (25° C.), the reaction was stopped with 50 μL of 20% trichloroacetic acid (TCA) that also contained 0.4 mM ATP. The entire contents of each well were then transferred to a 96 well glass fiber filter plate using a TomTek Cell Harvester. After washing, 60 μL of scintillation fluid was added and ^33P incorporation detected on a Perkin Elmer TopCount. After removing the mean background values for all of the data points, the data were fit using Prism software to obtain a Ki value (app).

Chain of JAK-2 (O60674 whole entry): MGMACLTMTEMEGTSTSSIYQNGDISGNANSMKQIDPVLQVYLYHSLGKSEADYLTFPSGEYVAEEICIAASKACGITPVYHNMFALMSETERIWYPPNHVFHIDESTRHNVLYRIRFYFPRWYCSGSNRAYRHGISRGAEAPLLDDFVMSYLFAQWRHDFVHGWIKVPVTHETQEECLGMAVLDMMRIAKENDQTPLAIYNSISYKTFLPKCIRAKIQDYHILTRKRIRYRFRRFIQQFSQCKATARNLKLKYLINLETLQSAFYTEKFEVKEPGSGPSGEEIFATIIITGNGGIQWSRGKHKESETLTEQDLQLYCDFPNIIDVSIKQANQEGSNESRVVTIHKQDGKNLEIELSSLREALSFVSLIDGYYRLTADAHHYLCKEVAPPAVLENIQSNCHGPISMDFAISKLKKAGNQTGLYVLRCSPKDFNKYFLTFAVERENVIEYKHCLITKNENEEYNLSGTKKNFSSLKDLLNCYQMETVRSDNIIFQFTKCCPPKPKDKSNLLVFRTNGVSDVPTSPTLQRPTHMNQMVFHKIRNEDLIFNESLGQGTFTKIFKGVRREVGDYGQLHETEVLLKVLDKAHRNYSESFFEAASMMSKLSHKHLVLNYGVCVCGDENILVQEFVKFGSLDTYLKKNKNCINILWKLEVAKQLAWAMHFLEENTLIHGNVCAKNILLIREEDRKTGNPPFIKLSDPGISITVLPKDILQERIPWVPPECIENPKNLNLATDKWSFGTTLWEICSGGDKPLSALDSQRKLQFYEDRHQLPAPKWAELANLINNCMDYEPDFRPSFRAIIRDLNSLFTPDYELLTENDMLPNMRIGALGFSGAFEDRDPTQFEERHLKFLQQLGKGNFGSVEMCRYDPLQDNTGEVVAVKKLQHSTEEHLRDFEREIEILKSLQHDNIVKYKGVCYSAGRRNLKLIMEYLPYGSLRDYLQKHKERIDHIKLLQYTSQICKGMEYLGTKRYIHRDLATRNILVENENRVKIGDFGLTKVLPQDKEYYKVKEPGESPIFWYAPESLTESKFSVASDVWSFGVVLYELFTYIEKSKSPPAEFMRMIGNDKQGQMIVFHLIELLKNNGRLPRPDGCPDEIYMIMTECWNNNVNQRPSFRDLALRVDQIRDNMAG

Structure (SMILES)	Ki (JAK-2)	Ki (JAK-3)
Cc1cc(C2Nc3ccccc3-c3ccnc4[nH]cc2c34)sc1C (centres unmarked) [Compound 124]	250 to 2500 nM	250 to 2500 nM
O=C(O)c1cc(C2Nc3ccccc3-c3ccnc4[nH]cc2c34)ccc1O (centres unmarked) [Compound 110]	> 2500 nM	> 2500 nM
O=C(O)C1Nc2ccccc2-c2ccnc3[nH]cc1c23 (centres unmarked) [Compound 23]	250 to 2500 nM	250 to 2500 nM
Fc1cccc(F)c1C1Nc2ccccc2-c2ncnc3[nH]cc1c23 (centres unmarked) [Compound 49]	< 250 nM	250 to 2500 nM
CC(C)CC1Nc2ccccc2-c2ccnc3[nH]cc1c23 (centres unmarked) [Compound 15]		> 2500 nM
CS(=O)(=O)Nc1ccc(C2Nc3ccccc3-c3ccnc4[nH]cc2c34)cc1 (centres unmarked) [Compound 123]		> 2500 nM
c1ccc2c(c1)NC(c1ccc(-n3ccnc3)cc1)c1c[nH]c3nccc-2c13 (centres unmarked) [Compound 119]	250 to 2500 nM	250 to 2500 nM
O=[N+]([O-])c1cc(C2Nc3ccccc3-c3ccnc4[nH]cc2c34)ccc1O (centres unmarked) [Compound 139]	250 to 2500 nM	250 to 2500 nM
CC(C)(C)C1Nc2ccccc2-c2ccnc3[nH]cc1c23 (centres unmarked) [Compound 6]		250 to 2500 nM
Fc1cccc(C2Nc3ccccc3-c3ccnc4[nH]cc2c34)c1F (centres unmarked) [Compound 25]	< 250 nM	250 to 2500 nM
Cn1cc2c3c(ccnc31)-c1cccnc1NC2c1ccc(O)cc1 (centres unmarked) [Compound 96]	< 250 nM	250 to 2500 nM
O=[N+]([O-])c1ccccc1C1Nc2ccccc2-c2ccnc3[nH]cc1c23 (centres unmarked) [Compound 35]	250 to 2500 nM	250 to 2500 nM
c1cncc(C2Nc3ccccc3-c3ccnc4[nH]cc2c34)c1 (centres unmarked) [Compound 38]	250 to 2500 nM	250 to 2500 nM
Oc1ccc(O)c(C2Nc3ccccc3-c3ccnc4[nH]cc2c34)c1 (centres unmarked) [Compound 72]	> 2500 nM	250 to 2500 nM
c1ccc(COCC2Nc3ccccc3-c3ncnc4[nH]cc2c34)cc1 (centres unmarked) [Compound 2]	> 2500 nM	> 2500 nM
Clc1ccccc1C1Nc2ccccc2-c2ccnc3[nH]cc1c23 (centres unmarked) [Compound 17]	250 to 2500 nM	250 to 2500 nM
Fc1ccccc1C1Nc2ccccc2-c2ccnc3[nH]cc1c23 (centres unmarked) [Compound 7]	< 250 nM	250 to 2500 nM
Oc1ccc(C2Nc3ccccc3-c3ccnc4[nH]cc2c34)cc1OC(F)(F)F (centres unmarked) [Compound 114]	250 to 2500 nM	250 to 2500 nM

Structure (SMILES)	Ki (JAK-2)	Ki (JAK-3)
FC(F)(F)C1Nc2ccccc2-c2ncnc3[nH]cc1c23 (centres unmarked) [Compound 4]	> 2500 nM	> 2500 nM
c1ccc(-c2onc3ccc(C4Nc5ccccc5-c5ccnc6[nH]cc4c56)cc23)cc1 (centres unmarked) [Compound 143]	> 2500 nM	> 2500 nM
c1ccc2c(c1)NC(c1ccc3nsnc3c1)c1c[nH]c3nccc-2c13 (centres unmarked) [Compound 144]	250 to 2500 nM	> 2500 nM
COc1ccc(C2Nc3ccccc3-c3ccnc4[nH]cc2c34)c(OC)c1 (centres unmarked) [Compound 142]	> 2500 nM	> 2500 nM
c1ccc(C2Nc3ccccc3-c3ncnc4[nH]cc2c34)cc1 (centres unmarked) [Compound 3]	> 2500 nM	250 to 2500 nM
COC(=O)Nc1ccc(C2c3cn(C(=O)OC)c4nccc(c34)-c3ccccc3N2C(=O)OC)cc1 (centres unmarked) [Compound 101]	> 2500 nM	> 2500 nM
OCCCCC1Nc2ccccc2-c2ccnc3[nH]cc1c23 (centres unmarked) [Compound 59]		> 2500 nM
COC(=O)C1(c2ccc([N+](=O)[O-])cc2)Nc2ccccc2-c2ccnc3[nH]cc1c23 (centres unmarked) [Compound 98]		250 to 2500 nM
c1ccc(C2Nc3ccccc3-c3ccnc4[nH]cc2c34)cc1 (centres unmarked) [Compound 5]		250 to 2500 nM
CC(C)C1Nc2ccccc2-c2ccnc3[nH]cc1c23 (centres unmarked) [Compound 16]		> 2500 nM
CNC(=O)c1ccc(C2Nc3ccccc3-c3ccnc4[nH]cc2c34)cc1 (centres unmarked) [Compound 91]		> 2500 nM
c1ccc2c(c1)NC(C1CCCCC1)c1c[nH]c3nccc-2c13 (centres unmarked) [Compound 10]		> 2500 nM
CCC1Nc2ccccc2-c2ccnc3[nH]cc1c23 (centres unmarked) [Compound 14]		250 to 2500 nM
O=C(O)c1ccc(C2Nc3ccccc3-c3ccnc4[nH]cc2c34)cc1 (centres unmarked) [Compound 88]		> 2500 nM
COC(=O)CC1Nc2ccccc2-c2ccnc3[nH]cc1c23 (centres unmarked) [Compound 156]		250 to 2500 nM
c1ccc(COCC2Nc3ccccc3-c3ccnc4[nH]cc2c34)cc1 (centres unmarked) [Compound 1]		250 to 2500 nM
Fc1ccc(C2Nc3ccccc3-c3ccnc4[nH]cc2c34)c(F)c1F (centres unmarked) [Compound 29]		250 to 2500 nM
c1ccc(CC2Nc3ccccc3-c3ccnc4[nH]cc2c34)cc1 (centres unmarked) [Compound 24]		250 to 2500 nM

The remaining lines, values ahead:

Ki (JAK-2)	Ki (JAK-3)	Structure (SMILES)
< 250 nM	≤ 250 nM	Oc1ccc(C2Nc3ncccc3-c3ccnc4[nH]cc2c34)c(Cl)c1 (centres unmarked) [Compound 57]
250 to 2500 nM	250 to 2500 nM	Fc1cccc(Cl)c1C1Nc2ccccc2-c2ccnc3[nH]cc1c23 (centres unmarked) [Compound 33]
250 to 2500 nM	250 to 2500 nM	Clc1cccc(C2Nc3ccccc3-c3ccnc4[nH]cc2c34)c1 (centres unmarked) [Compound 40]
	≤ 250 nM	Oc1ccc(C2Nc3ccccc3-c3ccnc4[nH]cc2c34)c(F)c1 (centres unmarked) [Compound 107]
< 250 nM	≤ 250 nM	COc1cc(C2Nc3ccccc3-c3ccnc4[nH]cc2c34)c(Br)cc1O (centres unmarked) [Compound 76]
< 250 nM	≤ 250 nM	COc1cc(C2Nc3ccccc3-c3ccnc4[nH]cc2c34)cc(F)c1O (centres unmarked) [Compound 68]
< 250 nM	≤ 250 nM	OB(O)c1ccc(C2Nc3ccccc3-c3ccnc4[nH]cc2c34)cc1 (centres unmarked) [Compound 128]
< 250 nM	≤ 250 nM	Fc1ccc(F)c(C2Nc3ccccc3-c3ccnc4[nH]cc2c34)c1F (centres unmarked) [Compound 30]
< 250 nM	≤ 250 nM	Oc1ccc(C2Nc3ccccc3-c3ncnc4[nH]cc2c34)cc1Br (centres unmarked) [Compound 82]
	≤ 250 nM	O=C1Nc2ccccc2-c2ccnc3[nH]cc(c23)C1c1ccc(O)cc1 (centres unmarked) [Compound 125]
	≤ 250 nM	COC(=O)C1(c2ccc(O)cc2)Nc2ccccc2-c2ccnc3[nH]cc1c23 (centres unmarked) [Compound 103]
< 250 nM	≤ 250 nM	Oc1cccc(C2Nc3ccccc3-c3ccnc4[nH]cc2c34)c1O (centres unmarked) [Compound 69]
< 250 nM	≤ 250 nM	COc1cc(C2Nc3ccccc3-c3ccnc4[nH]cc2c34)ccc1O (centres unmarked) [Compound 73]
< 250 nM	≤ 250 nM	CCCOc1ccc(C2Nc3ccccc3-c3ccnc4[nH]cc2c34)cc1 (centres unmarked) [Compound 146]
< 250 nM	≤ 250 nM	Cc1cc(O)ccc1C1Nc2ccccc2-c2ccnc3[nH]cc1c23 (centres unmarked) [Compound 133]
< 250 nM	≤ 250 nM	Oc1ccc(C2Nc3ccccc3-c3ccnc4[nH]cc2c34)cc1O (centres unmarked) [Compound 66]
< 250 nM	≤ 250 nM	Oc1c(F)cc(C2Nc3ccccc3-c3ccnc4[nH]cc2c34)cc1F (centres unmarked) [Compound 106]
< 250 nM	≤ 250 nM	Cn1cc2c3c(ncnc31)-c1ccccc1NC2c1ccc(O)c(F)c1 (centres unmarked) [Compound 117]
< 250 nM	≤ 250 nM	Cn1cc2c3c(ccnc31)-c1cccnc1NC2c1ccc(O)c(Cl)c1 (centres unmarked) [Compound 95]
	≤ 250 nM	Oc1ccc(C2Nc3ccccc3-c3ncnc4[nH]cc2c34)c(F)c1 (centres unmarked) [Compound 118]
	≤ 250 nM	Oc1ccc(C2Nc3ccccc3-c3ccnc4[nH]cc2c34)cc1Br (centres unmarked) [Compound 77]
	≤ 250 nM	OCc1ccc(C2Nc3ccccc3-c3ccnc4[nH]cc2c34)cc1 (centres unmarked) [Compound 154]
	≤ 250 nM	Oc1ccc(C2Nc3ccccc3-c3ncnc4[nH]cc2c34)cc1F (centres unmarked) [Compound 116]
	≤ 250 nM	Oc1ccc(C2Nc3ccccc3-c3ccnc4[nH]cc2c34)cc1F (centres unmarked) [Compound 105]
	≤ 250 nM	Oc1ccc(C2Nc3ccccc3-c3ccnc4[nH]cc2c34)cc1 (centres unmarked) [Compound 65]
